Measured values published in ChEMBL document CHEMBL2146468, “Thrombin inhibitors from the freshwater cyanobacterium Anabaena compacta” (J Nat Prod, 2012).
One block for each compound: values may come before it.

Experiments:
[1] = target: Cathepsin B (Homo sapiens, UniProt P07858); experiment: Inhibition of cathepsin B using Z-Phe-Arg-MCA as substrate incubated for 10 mins prior to substrate addition measured after 30 mins by fluorimetric analysis
[2] = target: Plasminogen (Homo sapiens, UniProt P00747); experiment: Inhibition of plasmin
Chain of Plasminogen (P00747 97-580 limits assumed): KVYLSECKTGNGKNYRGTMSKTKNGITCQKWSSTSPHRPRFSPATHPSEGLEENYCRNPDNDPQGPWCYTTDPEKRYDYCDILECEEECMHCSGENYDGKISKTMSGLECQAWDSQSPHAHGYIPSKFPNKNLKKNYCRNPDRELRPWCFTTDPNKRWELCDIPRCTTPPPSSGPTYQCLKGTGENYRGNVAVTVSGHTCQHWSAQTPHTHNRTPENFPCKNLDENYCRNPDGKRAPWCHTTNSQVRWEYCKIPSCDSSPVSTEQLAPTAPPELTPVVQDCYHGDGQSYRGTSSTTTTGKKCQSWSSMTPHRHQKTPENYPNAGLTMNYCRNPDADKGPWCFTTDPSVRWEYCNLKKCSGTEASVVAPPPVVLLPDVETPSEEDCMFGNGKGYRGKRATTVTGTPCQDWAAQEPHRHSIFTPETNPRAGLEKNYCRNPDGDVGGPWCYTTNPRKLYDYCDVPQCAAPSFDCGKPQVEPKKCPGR
Chain of Plasminogen (P00747 581-810 limits assumed): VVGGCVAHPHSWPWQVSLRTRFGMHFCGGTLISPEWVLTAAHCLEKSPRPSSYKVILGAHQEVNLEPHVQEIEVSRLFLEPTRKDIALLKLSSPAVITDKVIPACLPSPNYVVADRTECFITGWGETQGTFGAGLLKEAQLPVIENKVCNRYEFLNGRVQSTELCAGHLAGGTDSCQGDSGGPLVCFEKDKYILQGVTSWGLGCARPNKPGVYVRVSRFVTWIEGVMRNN

[3] = target: Prothrombin (Homo sapiens, UniProt P00734); experiment: Inhibition of thrombin
[4] = target: Prothrombin (Bos taurus, UniProt P00735); experiment: Inhibition of bovine thrombin using Bz-Phe-Val-Arg-pNA as substrate incubated for 5 mins prior to substrate addition measured after 30 mins by spectrophotometric analysis
[5] = Inhibition of trypsin
[6] = Selectivity ratio of EC50 for bovine thrombin to EC50 for cathepsin B

- EC50 [5]: 33.1 µM
SMILES: C[C@H]1C[C@@H](C(=O)N[C@@H](CCCNC(=N)N)C(=O)O)N(C(=O)[C@@H](CCc2ccc(O)cc2)NC(=O)[C@H](O)Cc2ccc(O)cc2)C1 [SPUMIGIN B1]

- EC50 [1]: 700 nM
- Ratio EC50 [6]: 7
- EC50 [4]: 4.9 µM
SMILES: C[C@H]1C[C@@H](C(=O)N(C)[C@H](CCCCN)C(=O)O)N(C(=O)[C@@H](CCc2ccc(O)cc2)NC(=O)[C@H](O)Cc2ccc(O)cc2)C1 [SPUMIGIN J]

The remaining lines, values behind:

SMILES: C[C@H]1C[C@@H](C(=O)N[C@H](CO)CCCN=C(N)N)N(C(=O)[C@@H](CCc2ccc(O)cc2)NC(=O)[C@H](O)Cc2ccc(O)cc2)C1 [SPUMIGIN A]
- EC50 [1]: 200 nM
- EC50 [2]: 4.9 µM
- EC50 [3]: 7.5 µM
- EC50 [4]: 2.1 µM

SMILES: C[C@H]1C[C@@H](C(=O)N[C@H](CO)CCCNC(=N)N)N(C(=O)[C@@H](CCc2ccc(O)cc2)NC(=O)[C@H](O)Cc2ccc(O)cc2)C1 [SPUMIGIN A]
- EC50 [5]: 26.3 µM
- Ratio EC50 [6]: 10

SMILES: C[C@H]1C[C@@H](C(=O)NC(C=O)CCCNC(=N)N)N(C(=O)[C@@H](CCc2ccc(O)cc2)NC(=O)[C@H](O)Cc2ccc(O)cc2)C1 (stereo partly specified) [SPUMIGIN E]
- EC50 [5]: 0.3 µM
